Measurements reported in patent US8119681B2, “2-[1-phenyl-5-hydroxy or methoxy-4alpha-methyl-hexahydrocyclopenta [ƒ]indazole-5-YL]ethyl phenyl derivatives as glucocorticoid receptor ligands” (Merck Sharp & Dohme Corp., priority 2006, dated 2012).

These molecules were tested against T1, human GR (Homo sapiens, UniProt P04150) (assay: Transrepression Assay (GITAR), TNFα-β-lactamase reporter gene in U937 cells). Conditions: U-937, read-out: maximal activity in the transrepression assay.
T1 sequence (P04150 1-777): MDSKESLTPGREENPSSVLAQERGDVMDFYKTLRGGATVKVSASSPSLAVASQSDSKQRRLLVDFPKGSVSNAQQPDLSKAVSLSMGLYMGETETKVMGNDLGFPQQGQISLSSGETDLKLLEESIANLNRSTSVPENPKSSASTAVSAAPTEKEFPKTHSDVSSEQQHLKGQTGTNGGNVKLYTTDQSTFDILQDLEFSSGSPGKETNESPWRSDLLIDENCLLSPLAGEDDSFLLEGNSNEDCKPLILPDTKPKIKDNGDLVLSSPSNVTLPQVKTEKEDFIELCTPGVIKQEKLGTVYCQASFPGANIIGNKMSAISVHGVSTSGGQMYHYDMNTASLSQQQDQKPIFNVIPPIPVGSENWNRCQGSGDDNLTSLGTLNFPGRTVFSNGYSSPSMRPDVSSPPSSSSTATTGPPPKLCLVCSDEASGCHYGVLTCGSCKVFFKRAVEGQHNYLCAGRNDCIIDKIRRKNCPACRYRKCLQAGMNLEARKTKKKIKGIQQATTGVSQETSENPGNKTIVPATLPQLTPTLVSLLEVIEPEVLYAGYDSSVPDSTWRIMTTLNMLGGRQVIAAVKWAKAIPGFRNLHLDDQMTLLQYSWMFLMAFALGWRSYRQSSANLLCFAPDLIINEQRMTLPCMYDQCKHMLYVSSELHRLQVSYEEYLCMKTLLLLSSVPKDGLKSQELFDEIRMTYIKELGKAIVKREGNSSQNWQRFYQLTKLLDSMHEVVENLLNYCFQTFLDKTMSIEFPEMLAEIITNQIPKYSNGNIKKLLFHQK
Assay type: cell-based
Parameters: U937 cells contain an endogenous glucocorticoid receptor (GR); endogenous in cells; host or cells: U937 cells stably transfected with the TNF-α promoter/β-lactamase reporter only
In short: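 Reporter readout used CCF2-AM loading for 70–90 min at room temperature after overnight (~18 h, 37 °C) PMA (5 ng/ml final) and LPS (100 ng/ml final) stimulation of compound-treated (30–45 min) TNFα-β-lactamase U937 cells expressing native GR. Activity was normalised to 100 nM dexamethasone repression.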

SMILES	Emax [%]
C[C@]12Cc3cnn(-c4ccc(F)cc4)c3C=C1CC[C@@]2(O)CCc1ccccc1C(O)(C(N)=O)C1CC1 (stereo partly drawn) [Example 200, 2-cyclopropyl-2-(2-{2-[(4αS,5R)-1-(4-fluorophenyl)-5-hydroxy-4α-methyl-1,4,4α,5,6,7-hexahydrocyclopenta[f]indazol-5-yl]ethyl}phenyl)-2-hydroxyacetamide]	5 to 100

Same assay, conditions: U-937; 100 nM dexamethasone = 100% activity; read-out: maximal activity in the transrepression assay

SMILES	Emax [%]
C[C@]12Cc3cnn(-c4ccc(F)cc4)c3C=C1CC[C@@]2(O)CCc1cc(C(F)(F)F)ccc1C(N)=O [Example 173, 2-{2-[(4α6,5R)-1-(4-fluorophenyl)-5-hydroxy-4α-methyl-1,4,4α,5,6,7-hexahydrocyclopenta[f]indazol-5-yl]ethyl}-4-(trifluoromethyl)benzamide]	5 to 100
C[C@]12Cc3cnn(-c4ccc(F)cc4)c3C=C1CC[C@@]2(O)CCc1ccc(C(F)(F)F)cc1C(N)=O [Example 175, 2-{2-[(4αS,5R)-1-(4-fluorophenyl)-5-hydroxy-4α-methyl-1,4,4α,5,6,7-hexahydrocyclopenta[f]indazol-5-yl]ethyl}-5-(trifluoromethyl)benzamide]	5 to 100
C[C@]12Cc3cnn(-c4ccc(F)c(F)c4)c3C=C1CC[C@@]2(O)CCc1cccc(Cl)c1C(N)=O [Example 176, 2-chloro-6-{2-[(4αS,5R)-1-(3,4-difluorophenyl)-5-hydroxy-4α-methyl-1,4,4α,5,6,7-hexahydrocyclopenta[f]indazol-5-yl]ethyl}benzamide]	5 to 100
C[C@]12Cc3cnn(-c4ccc(F)c(F)c4)c3C=C1CC[C@@]2(O)CCc1cc(Cl)ccc1C(N)=O [Example 177, 4-chloro-2-{2-[(4αS,5R)-1-(3,4-difluorophenyl)-5-hydroxy-4α-methyl-1,4,4α,5,6,7-hexahydrocyclopenta[f]indazol-5-yl]ethyl}benzamide]	5 to 100
C[C@]12Cc3cnn(-c4ccc(F)cc4)c3C=C1CC[C@@]2(O)CCc1cc(F)c(F)cc1C(N)=O [Example 178, 4,5-difluoro-2-{2-[(4αS,5R)-1-(4-fluorophenyl)-5-hydroxy-4α-methyl-1,4,4α,5,6,7-hexahydrocyclopenta[f]indazol-5-yl]ethyl}benzamide]	5 to 100
CO[C@@]1(CCc2ccc(C(F)(F)F)cc2C(N)=O)CCC2=Cc3c(cnn3-c3ccc(F)cc3)C[C@@]21C [Example 179, 2-{2-[(4αS,5R)-1-(4-fluorophenyl)-5-methoxy-4α-methyl-1,4,4α,5,6,7-hexahydrocyclopenta[f]indazol-5-yl]ethyl}-5-(trifluoromethyl)benzamide]	5 to 100
C[C@]12Cc3cnn(-c4ccc(F)cc4)c3C=C1CC[C@@]2(O)CCc1ccc(C#N)cc1C(N)=O [Example 180, 5-cyano-2-{2-[(4αS,5R)-1-(4-fluorophenyl)-5-hydroxy-4α-methyl-1,4,4α,5,6,7-hexahydrocyclopenta[f]indazol-5-yl]ethyl}benzamide]	5 to 100
Cc1ccc(CC[C@]2(O)CCC3=Cc4c(cnn4-c4ccc(F)cc4)C[C@@]32C)c(C(N)=O)c1 [Example 181, 2-{2-[(4αS,5R)-1-(4-fluorophenyl)-5-hydroxy-4α-methyl-1,4,4α,5,6,7-hexahydrocyclopenta[f]indazol-5-yl]ethyl}-5-methylbenzamide]	5 to 100
Cc1cccc(CC[C@]2(O)CCC3=Cc4c(cnn4-c4ccc(F)cc4)C[C@@]32C)c1C(N)=O [Example 182, 2-{2-[(4αS,5R)-1-(4-fluorophenyl)-5-hydroxy-4α-methyl-1,4,4α,5,6,7-hexahydrocyclopenta[f]indazol-5-yl]ethyl}-6-methylbenzamide]	5 to 100
C[C@]12Cc3cnn(-c4ccc(F)cc4)c3C=C1CC[C@@]2(O)CCc1ccc(F)c(F)c1C(N)=O [Example 183, 2,3-difluoro-6-{2-[(4αS,5R)-1-(4-fluorophenyl)-5-hydroxy-4α-methyl-1,4,4α,5,6,7-hexahydrocyclopenta[f]indazol-5-yl]ethyl}benzamide]	5 to 100
C[C@]12Cc3cnn(-c4ccc(Cl)cc4)c3C=C1CC[C@@]2(O)CCc1ccccc1C(N)=O [Example 184, 2-{2-[(4αS,5R)-1-(4-chlorophenyl)-5-hydroxy-4α-methyl-1,4,4α,5,6,7-hexahydrocyclopenta[f]indazol-5-yl]ethyl}benzamide]	5 to 100
Cc1cccc(CC[C@]2(O)CCC3=Cc4c(cnn4-c4ccc(F)c(F)c4)C[C@@]32C)c1C(N)=O [Example 186, 2-{2-[(4αS,5R)-1-(3,4-difluorophenyl)-5-hydroxy-4α-methyl-1,4,4α,5,6,7-hexahydrocyclopenta[f]indazol-5-yl]ethyl}-6-methylbenzamide]	5 to 100
C[C@]12Cc3cnn(-c4cccc(F)c4)c3C=C1CC[C@@]2(O)CCc1ccccc1C(N)=O [Example 187, 2-{2-[(4αS,5R)-1-(3-fluorophenyl)-5-hydroxy-4α-methyl-1,4,4α,5,6,7-hexahydrocyclopenta[f]indazol-5-yl]ethyl}benzamide]	5 to 100
C[C@]12Cc3cnn(-c4ccc(F)cc4)c3C=C1CC[C@@]2(O)CCc1cccc(C(F)(F)F)c1C(N)=O [Example 188, 2-{2-[(4αS,5R)-1-(4-fluorophenyl)-5-hydroxy-4α-methyl-1,4,4α,5,6,7-hexahydrocyclopenta[f]indazol-5-yl]ethyl}-6-(trifluoromethyl)benzamide]	5 to 100
C[C@]12Cc3cnn(-c4ccc(F)cc4)c3C=C1CC[C@@]2(O)CCc1ccc(-c2ccccc2)cc1C(N)=O [Example 190, 4-{2-[(4αS,5R)-1-(4-fluorophenyl)-5-hydroxy-4α-methyl-1,4,4α,5,6,7-hexahydrocyclopenta[f]indazol-5-yl]ethyl}biphenyl-3-carboxamide]	5 to 100
C[C@]12Cc3cnn(-c4ccc(F)cc4)c3C=C1CC[C@@]2(O)CCc1ccccc1C(O)C(N)=O (stereo partly drawn) [Example 192, 2-(2-{2-[(4αS,5R)-1-(4-fluorophenyl)-5-hydroxy-4α-methyl-1,4,4α,5,6,7-hexahydrocyclopenta[f]indazol-5-yl]ethyl}phenyl)-2-hydroxyacetamide]	5 to 100
C[C@]12Cc3cnn(-c4ccc(F)cc4)c3C=C1CC[C@@]2(O)CCc1cc(F)ccc1CC(N)=O [Example 193, 2-(4-fluoro-2-{2-[(4αS,5R)-1-(4-fluorophenyl)-5-hydroxy-4α-methyl-1,4,4α,5,6,7-hexahydrocyclopenta[f]indazol-5-yl]ethyl}phenyl)acetamide]	5 to 100
C[C@]12Cc3cnn(-c4ccc(F)c(F)c4)c3C=C1CC[C@@]2(O)CCc1ccccc1CC(N)=O [Example 195, 2-(2-{2-[(4αS,5R)-1-(3,4-difluorophenyl)-5-hydroxy-4α-methyl-1,4,4α,5,6,7-hexahydrocyclopenta[f]indazol-5-yl]ethyl}phenyl)acetamide]	5 to 100
